Laboratory results reported in patent publication US20250236616A1, “IMMUNOMODULATING AZALIDES” (Zoetis Services LLC, priority 2021, published 2025).

What was measured:
IL-1β = test: Whole bovine blood assay, LPS-induced IL-1β (inhibition / overstimulation); assay type: cell-based; conditions: Bos taurus, 18 h, drug concentration giving overstimulation (OS) of LPS-induced IL-1β, top concentration 250 μM
How it was run: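 Fresh heparinized bovine whole blood was preincubated with compound at varying concentrations for 4 h at 37 °C, then stimulated with 1 μg/mL LPS for 18 h. Plasma IL-1β was measured by MSD chemiluminescent immunoassay and normalized to total protein. Values cover inhibition and concentration-dependent overstimulation.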

TNF-α = test: Whole bovine blood assay, LPS-induced TNF-α; assay type: cell-based; conditions: Bos taurus, fresh whole bovine blood, LPS stimulant; top drug concentration 250 μM
How it was run: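 Fresh heparinized bovine whole blood was preincubated with compound 4 h at 37 °C, then stimulated with LPS (final 1 μg/mL) for 18 h at 37 °C. Plasma TNF-α was quantified by MSD U-Plex chemiluminescent immunoassay, normalized to total protein (BCA), and IC50 taken for LPS-induced TNF-α inhibition.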

Structure (SMILES) | minimal effective concentration (IL-1β) | IC50 (TNF-α)
CC[C@H]1OC(=O)[C@H](C)[C@@H](O[C@H]2C[C@@](C)(OC)[C@](O)(CN3CCCCC3)[C@H](C)O2)[C@H](C)[C@@H](O[C@@H]2O[C@H](C)C[C@H](N(C)S(=O)(=O)c3ccc(Cl)cc3)[C@H]2O)[C@](C)(O)C[C@@H](C)CN[C@H](C)[C@@H](O)[C@]1(C)O [Example C-4, 4-chloro-N-((2S,3R,4S,6R)-2-(((2R,3S,4R,5R,8R,10R,11R,12S,13S,14R)-2-ethyl-3,4,10-trihydroxy-13-(((2R,4R,5S,6S)-5-hydroxy-4-methoxy-4,6-dimethyl-5-(piperidin-1-ylmethyl)tetrahydro-2H-pyran-2-yl)oxy)-3,5,8, 10, 12, 14-hexamethyl-15-oxo-1-oxa-6-azacyclopentadecan-11-yl)oxy)-3-hydroxy-6-methyltetrahydro-2H-pyran-4-yl)-N-methylbenzenesulfonamide] | 16 µM | 5 µM
CC[C@H]1OC(=O)[C@H](C)[C@@H](O)[C@H](C)[C@@H](O[C@@H]2O[C@H](C)C[C@H](N(C)S(=O)(=O)c3ccccc3)[C@H]2Oc2ccc(OC)cc2)[C@](C)(O)C[C@@H](C)CN[C@H](C)[C@@H](O)[C@]1(C)O [Example A-9, N-((2S,3R,4S,6R)-2-(((2R,3S,4R,5R,8R,10R,11R,12S,13S,14R)-2-ethyl-3,4,10,13-tetrahydroxy-3,5,8,10, 12, 14-hexamethyl-15-oxo-1-oxa-6-azacyclopentadecan-11-yl)oxy)-3-(4-methoxyphenoxy)-6-methyltetrahydro-2H-pyran-4-yl)-N-methylbenzenesulfonamide] | 16 µM | 4 µM
CC[C@H]1OC(=O)[C@H](C)[C@@H](O[C@H]2C[C@@](C)(OC)[C@](O)(CN3CCCCC3)[C@H](C)O2)[C@H](C)[C@@H](O[C@@H]2O[C@H](C)C[C@H](N(C)S(=O)(=O)Nc3ccc(C(F)(F)F)cc3)[C@H]2O)[C@](C)(O)C[C@@H](C)CN[C@H](C)[C@@H](O)[C@]1(C)O [Example C-11, (2R,3S,4R,5R,8R,10R,11R,12S, 13S, 14R)-2-ethyl-3,4, 10-trihydroxy-13-[(2R,4R,5S,6S)-5-hydroxy-4-methoxy-4,6-dimethyl-5-(piperidin-1-ylmethyl)oxan-2-yl]oxy-11-[(2S,3R,4S,6R)-3-hydroxy-6-methyl-4-[methyl-[[4-(trifluoromethyl)phenyl]sulfamoyl]amino]oxan-2-yl]oxy-3,5,8, 10, 12, 14-hexamethyl-15-oxo-1-oxa-6-azacyclopentadecane] | – | 17 µM
CCCNC[C@]1(O)[C@H](C)O[C@@H](O[C@H]2[C@H](C)[C@@H](O[C@@H]3O[C@H](C)C[C@H](N(C)S(=O)(=O)Nc4ccc(C(F)(F)F)cc4)[C@H]3O)[C@](C)(O)C[C@@H](C)CN[C@H](C)[C@@H](O)[C@](C)(O)[C@@H](CC)OC(=O)[C@@H]2C)C[C@@]1(C)OC [Example B-50, (2R,3S,4R,5R,8R,10R,11R,12S,13S, 14R)-2-ethyl-3,4,10-trihydroxy-13-[(2R,4R,5S,6S)-5-hydroxy-4-methoxy-4,6-dimethyl-5-(propylaminomethyl)oxan-2-yl]oxy-11-[(2S,3R,4S,6R)-3-hydroxy-6-methyl-4-[methyl-[[4-(trifluoromethyl)phenyl]sulfamoyl]amino]oxan-2-yl]oxy-3,5,8, 10, 12, 14-hexamethyl-15-oxo-1-oxa-6-azacyclopentadecane] | 6 µM | –
CCCNC[C@]1(O)[C@H](C)O[C@@H](O[C@H]2[C@H](C)[C@@H](O[C@@H]3O[C@H](C)C[C@H](N(C)S(=O)(=O)c4ccc(C)cc4)[C@H]3O)[C@](C)(O)C[C@@H](C)CN[C@H](C)[C@@H](O)[C@](C)(O)[C@@H](CC)OC(=O)[C@@H]2C)C[C@@]1(C)OC [Example B-26, N-((2S,3R,4S,6R)-2-(((2R,3S,4R,5R,8R,10R,11R,12S,13S,14R)-2-ethyl-3,4,10-trihydroxy-13-(((2R,4R,5S,6S)-5-hydroxy-4-methoxy-4,6-dimethyl-5-((propylamino)methyl)tetrahydro-2H-pyran-2-yl)oxy)-3,5,8,10,12,14-hexamethyl-15-oxo-1-oxa-6-azacyclopentadecan-11-yl)oxy)-3-hydroxy-6-methyltetrahydro-2H-pyran-4-yl)-N,4-dimethylbenzenesulfonamide] | 16 µM | 20 µM
CCCNC[C@]1(O)[C@H](C)O[C@@H](O[C@H]2[C@H](C)[C@@H](O[C@@H]3O[C@H](C)C[C@H](NC)[C@H]3O)[C@](C)(O)C[C@@H](C)CN[C@H](C)[C@@H](O)[C@](C)(O)[C@@H](CC)OC(=O)[C@@H]2C)C[C@@]1(C)OC [Example M9, (2R,3S,4R,5R,8R,10R,11R,12S,13S,14R)-2-ethyl-3,4, 10-trihydroxy-13-(((2R,4R,5S,6S)-5-hydroxy-4-methoxy-4,6-dimethyl-5-((propylamino)methyl)-tetrahydro-2H-pyran-2-yl)oxy)-11-(((2S,3R,4S,6R)-3-hydroxy-6-methyl-4-(methylamino)tetrahydro-2H-pyran-2-yl)oxy)-3,5,8,10,12,14-hexamethyl-1-oxa-6-azacyclopentadecan-15-one] | – | 250 µM
